From patent US5120748A, “Substituted 1,2,3,6-tetrahydropyridines as central nervous system agents” (Warner-Lambert Company, priority 1991, dated 1992)

What was measured:
brain dopamine synthesis = assay: Reversal of brain dopamine synthesis in rats (inhibition of dopamine synthesis); type: in vivo; conditions: 10 mg/kg, IP
Experimental: (§1) The compounds of Formula I are valuable dopaminergic agents. […] Thus, the compounds of Formula I were tested for their ability to inhibit locomotor activity in mice according to the assay described by J. R. McLean, et al, Pharmacology, Biochemistry and Behavior, Volume 8, pages 97-99 (1978); for their ability to inhibit [^3 H]-spiroperidol binding in a receptor assay described by D. Griogoriadis and P. Seeman, Journal of Neurochemistry, Volume 44, pages 1925-1935 (1985); and for their ability to inhibit dopamine synthesis in rats according to the protocol described by J. R. Walters and R. H. Roth, Naunyn-Schmiedeberg's Archives of Pharmacology, Volume 296, pages 5-14 (1976). The above test methods are incorporated herein by reference. The data in the table show the dopaminergic activity of representative compounds of Formula I.

locomotor activity = assay: Inhibition of locomotor activity in mice; type: in vivo; conditions: Mus musculus, IP
Experimental: as §1

[1] = target: [^3 H]spiroperidol binding; assay: Inhibition of [^3 H]spiroperidol binding in a receptor assay; conditions: [^3 H]spiroperidol radioligand
Experimental: as §1

Compound | % Reversal of Brain Dopamine Synthesis in Rats (brain dopamine synthesis) [%] | ED50 (locomotor activity) [mg/kg] | IC50 [1] [µM]
C1=C(c2ccccc2)CCN(CCSCc2cccnc2)C1.Cl.Cl [Example 1, 3-[[[2-(1,2,3,6-Tetrahydro-4-phenyl-1-pyridinyl)ethyl]thio]methyl]pyridine, dihydrochloride] | 70 | 0.18 | 
C1=C(c2cccs2)CCN(CCCSc2ccncc2)C1 [Example 2, 4-[[3-[3,6-Dihydro-4-(2-thienyl)-1(2H)-pyridinyl]propyl]thio]pyridine] |  | 0.5 | 86
C1=C(c2ccccc2)CCN(CCCSc2ccncc2)C1 [Example 3, 4-[[3-(3,6-Dihydro-4-phenyl-1(2H)-pyridinyl)propyl]thio]pyridine] | 48 | 0.4 | 46
C1=C(c2ccccc2)CCN(CCCCSc2ccncc2)C1 [Example 4, 1,2,3,6-Tetrahydro-4-phenyl-1-[4-(4-pyridinylthio)butyl]pyridine] | 82 | 1 | 92
C1=C(c2cccs2)CCN(CCCCSc2ccncc2)C1.Cl.Cl [Example 5, 1,2,3,6-Tetrahydro-1-[4-(4-pyridinylthio)butyl]-4-(2-thienyl)pyridine, dihydrochloride] | 47 | 1.8 | 190
